test: Henry solubility constant Hcp at 298.15 K (mol/(m3 Pa)); details: reference: Dunnivant and Elzerman (1988)

| SMILES | Henry solubility constant Hcp |
| --- | --- |
| Clc1cccc(-c2cccc(Cl)c2Cl)c1Cl [2,2',3,3'-tetrachlorobiphenyl] | 0.049 |
| Clc1cc(Cl)c(-c2cc(Cl)c(Cl)cc2Cl)cc1Cl [2,2',4,4',5,5'-hexachlorobiphenyl] | 0.075 |
| Clc1cc(Cl)c(-c2c(Cl)cc(Cl)cc2Cl)c(Cl)c1 [2,2',4,4',6,6'-hexachlorobiphenyl] | 0.013 |
| Clc1ccc(Cl)c(-c2cc(Cl)c(Cl)cc2Cl)c1 [2,2',4,5,5'-pentachlorobiphenyl] | 0.039 |
| Clc1ccc(Cl)c(-c2cc(Cl)ccc2Cl)c1 [2,2',5,5'-tetrachlorobiphenyl] | 0.029 |
| Clc1ccc(Cl)c(-c2ccccc2Cl)c1 [2,2',5-trichlorobiphenyl] | 0.026 |
| Clc1cccc(Cl)c1-c1c(Cl)cccc1Cl [2,2',6,6'-tetrachlorobiphenyl] | 0.018 |
| Clc1ccccc1-c1ccccc1Cl [2,2'-dichlorobiphenyl] | 0.029 |
| Clc1cccc(-c2cc(Cl)ccc2Cl)c1 [2,3',5-trichlorobiphenyl] | 0.03 |
| Clc1cc(Cl)c(-c2ccccc2)c(Cl)c1 [2,4,6-trichlorobiphenyl] | 0.015 |
| Clc1ccc(-c2ccccc2)c(Cl)c1 [2,4-dichlorobiphenyl] | 0.028 |
| Clc1ccc(Cl)c(-c2ccccc2)c1 [2,5-dichlorobiphenyl] | 0.025 |
| Clc1ccc(-c2ccc(Cl)c(Cl)c2)cc1Cl [3,3',4,4'-tetrachlorobiphenyl] | 0.1 |
| Clc1cccc(-c2cccc(Cl)c2)c1 [3,3'-dichlorobiphenyl] | 0.042 |
| Clc1ccc(-c2ccccc2)cc1Cl [3,4-dichlorobiphenyl] | 0.048 |
| Clc1ccc(-c2ccc(Cl)cc2)cc1 [4,4'-dichlorobiphenyl] | 0.05 |

— Sander's compilation of Henry's law constants (doi:10.1016/0045-6535(88)90028-8)
